PMC5766233, “Ternary copper(II) complex: NCI60 screening, toxicity studies, and evaluation of efficacy in xenograft models of nasopharyngeal carcinoma” (PLoS ONE, 2018)

Assays:
[1] = Hematotoxicity evaluation (blood, spleen, bone marrow) in xenograft bearing mice; format: in vivo, NOD scid gamma female mice; details: for Band neutrophil / Basophils / Eosinophils / Hemoglobin / Lymphocytes / MCHC / MCV / Monocytes / PVC / Plasma protein / RBC / Segmented neutrophil / Thrombocytes / WBC: C666-1-GFP-Luc2 xenograft mice, mean ± SEM
Description: Values of hematological parameters of mice bearing C666-1-GFP-Luc2, an Epstein-barr virus (EBV) positive NPC cell line xenografts which were treated with 4 and 5 mg/kg of the Cu(II) complex were compared with those from control groups (Table 3). […] This indicated absence of anemia.
We further investigated the effects of Cu(II) complex on spleen and bone marrow (from femur) responses.
Blood samples were collected into BD Microtainer Tubes containing dipotassium EDTA (Becton, Dickinson and Company, New Jersey, USA) and submitted to the Veterinary Laboratory Services Unit, Faculty of Veterinary Medicine, Universiti Putra Malaysia, Serdang, Malaysia, for full blood count (FBC) analysis.
Major organs, bones and excised tumors were preserved in 10% neutral buffered formaldehyde solution (Leica Biosystems, Germany) for 24 to 48 h and subsequently processed into formalin-fixed paraffin-embedded tissue blocks following standard tissue processing protocol using Leica ASP300 S (Leica Biosystems, Nussloch, Germany). Fixed bones (skull, femur and tibia) were decalcified with Surgipath Decalcifier I (Leica Biosystems, Germany) for 4 to 6 h depending on size before tissue processing. After paraffin embedding, tissue blocks were sectioned ([…]) using rotary microtome Microm HM340E (Thermo Scientific, Walldorf, Germany) and stained with hematoxylin and eosin (H&E) dyes using Leica Autostainer XL (Leica Biosystems, Nussloch, Germany) before histopathological examination.
All H&E-stained tissue section slides were examined under Nikon Eclipse Ni microscope (Nikon Instruments Inc., New York, USA) and microscopic images were taken using 20x and 40x objectives. For H&E tumor section slides, the percentage of tumor necrosis was determined qualitatively using microscope by the histopathologist in order to estimate the percentage of necrotic area induced by the Cu(II) complex in the tumors. For determination of femoral bone marrow suppression, low power (10x magnification) objective was used to scan the slides while 100x magnification to assess the degree of cellularity and amount of fat present.

CYP3A = test: Cytochrome P450 induction assay in rat primary hepatocytes, CYP3A; details: for Fold induction CYP3A: 3 days; for % of positive control CYP3A: positive control dexamethasone 30 μM
Description: Assessment for potential drug-drug interaction is an important component of drug discovery and development. […] Most drug-drug interaction and drug metabolism occur in the hepatic cytochrome P450 (CYP) system. CYP is a superfamily of metabolizing enzymes located primarily in hepatocytes. Inhibition or induction of CYP enzymes is a mechanism for drug-drug interaction. In the current work, the inhibition and induction of CYP enzymes were investigated. CYP induction assay was performed using rat primary hepatocytes for CYP […] isoforms with dexamethasone (30 μM) and 3-methyl cholanthrene (1.0 μM) as […], respectively. Cytochrome CYP 3A enzymes are considered to be the most important enzymes catalyzing drug metabolism with broad substrate specificity while CYP 1A enzymes play key roles in the metabolic activation of aromatic hydrocarbons to carcinogenic metabolites. In orally administered anticancer drug, gut wall CYP 3A enzyme is considered important for drug-drug interactions and xenobiotic interactions.
5.0 x 10^5 viable rat hepatocytes were seeded into collagen-coated 24 well plate in 500 μL William’s medium E (Sigma Aldrich) per well and they were incubated at 37°C in a 5% CO2 humidified incubator. After an overnight incubation, the medium in each designated well was replaced with 500 μL of fresh medium containing the specified concentration of Cu(II) complex (1.0, 0.3 and 0.1 μM), dexamethasone (30 μM), 3-methyl cholanthrene (1.0 μM) as reference standards (positive controls) or fresh medium alone (vehicle control). The cells were treated for 3 consecutive days with daily replacement of fresh medium containing compounds. After incubation, the cells were washed with 1X HBSS and the medium was replaced with 300 μL of probe substrates (Midazolam at 10 μM and Phenacetin at 100 μM; prepared in HBSS). The cells were then incubated for a further 20 min at 37°C with mild shaking. The reaction was terminated by adding 600 μL of cold acetonitrile followed by scraping of cells. The above mixture in each well was transferred to a tube, and these tubes were centrifuged at 10,000 rpm for 10 min. The concentration/level of metabolites in the supernatant was monitored by LC-MS/MS.
The extent of fold induction as well as percent of positive control was calculated relative to basal control (untreated) by using the following formula.
%Activity=(averagearearatiooftreated/averagearearatioofbasalcontrol)x100
Foldinduction=%activity/100%ofpositivecontrol=foldinduction(Cu(II)treated)/foldinduction(referencestandardtreated)x100

CYP 2C9 = molecular target: T1, CYP 2C9 (Homo sapiens, UniProt P11712); test: CYP450 inhibition assay, pooled human liver microsomes; format: in vitro ADME; details: probe tolbutamide
T1 construct: Pooled human liver microsomes (Sekisui Xeno Tech, LLC., Kansas City, KS, USA) were incubated; tissue Sekisui Xeno Tech, LLC; host or cells: pooled human liver microsomes
T1 sequence (P11712 whole entry): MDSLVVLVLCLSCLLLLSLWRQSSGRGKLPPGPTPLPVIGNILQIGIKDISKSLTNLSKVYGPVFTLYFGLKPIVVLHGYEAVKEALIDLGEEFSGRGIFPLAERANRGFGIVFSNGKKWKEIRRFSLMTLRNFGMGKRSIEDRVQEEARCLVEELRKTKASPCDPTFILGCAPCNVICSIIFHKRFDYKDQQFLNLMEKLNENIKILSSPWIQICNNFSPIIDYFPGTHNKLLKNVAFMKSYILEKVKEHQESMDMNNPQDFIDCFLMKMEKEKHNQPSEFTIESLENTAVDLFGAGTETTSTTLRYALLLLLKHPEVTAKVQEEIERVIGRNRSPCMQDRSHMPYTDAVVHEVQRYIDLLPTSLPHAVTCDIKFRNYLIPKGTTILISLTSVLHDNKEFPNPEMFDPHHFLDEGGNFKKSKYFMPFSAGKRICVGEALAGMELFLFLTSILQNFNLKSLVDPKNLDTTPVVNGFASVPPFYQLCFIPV

CC(C)(N)C(=O)[O-].O.O=[N+]([O-])[O-].[Cu+2].c1cnc2c(c1)ccc1cccnc12 [Cu(II) complex, [Cu(phen)(C-dmg)(H2O)]NO3]
Band neutrophil ([1]; 4 mg/kg): 0.1 ± 0.0 x10^9/L | Basophils ([1]; 4 mg/kg): 0.0 ± 0.0 x10^9/L | Eosinophils ([1]; 4 mg/kg): 0.0 ± 0.0 x10^9/L | Hemoglobin ([1]; 4 mg/kg): 126.8 ± 10.0 g/L | Lymphocytes ([1]; 4 mg/kg): 0.2 ± 0.0 x10^9/L | MCHC ([1]; 4 mg/kg): 308.5 ± 4.9 g/L | MCV ([1]; 4 mg/kg): 52.9 ± 1.2 fL | Monocytes ([1]; 4 mg/kg): 0.2 ± 0.1 x10^9/L | PVC ([1]; 4 mg/kg): 0.4 ± 0.0 L/L | Plasma protein ([1]; 4 mg/kg): 59.5 ± 2.2 g/L | RBC ([1]; 4 mg/kg): 7.8 ± 0.7 x10^12/L | Segmented neutrophil ([1]; 4 mg/kg): 2.0 ± 0.4 x10^9/L | Thrombocytes ([1]; 4 mg/kg): 1659.0 ± 120.4 x10^9/L | WBC ([1]; 4 mg/kg): 2.5 ± 0.5 x10^9/L | Band neutrophil ([1]; 5 mg/kg): 0.1 ± 0.0 x10^9/L | Basophils ([1]; 5 mg/kg): 0.0 ± 0.0 x10^9/L | Eosinophils ([1]; 5 mg/kg): 0.0 ± 0.0 x10^9/L | Hemoglobin ([1]; 5 mg/kg): 133.7 ± 4.4 g/L | Lymphocytes ([1]; 5 mg/kg): 0.1 ± 0.0 x10^9/L | MCHC ([1]; 5 mg/kg): 308.3 ± 5.0 g/L | MCV ([1]; 5 mg/kg): 56.2 ± 1.8 fL | Monocytes ([1]; 5 mg/kg): 0.2 ± 0.0 x10^9/L | PVC ([1]; 5 mg/kg): 0.4 ± 0.0 L/L | Plasma protein ([1]; 5 mg/kg): 55.7 ± 2.5 g/L | RBC ([1]; 5 mg/kg): 7.8 ± 0.4 x10^12/L | Segmented neutrophil ([1]; 5 mg/kg): 2.5 ± 0.2 ^* x10^9/L | Thrombocytes ([1]; 5 mg/kg): 1288.2 ± 155.8 x10^9/L | WBC ([1]; 5 mg/kg): 2.9 ± 0.3 ^* x10^9/L | spleen weight ([1]; C666-1-GFP-Luc2 bearing mice, 5 and 6 mg/kg, vs control groups): significantly lower weight | spleen weight ([1]; HK1 bearing mice, 4, 6 and 8 mg/kg): did not show weight loss | bone marrow suppression (femur) ([1]; all treated groups): no evidence of bone marrow suppression | Fold induction CYP3A (CYP3A; 0.1 μM): 1.3 | % of positive control CYP3A (CYP3A; 0.1 μM): 4.7% | Fold induction CYP3A (CYP3A; 0.3 μM): 1.2 | % of positive control CYP3A (CYP3A; 0.3 μM): 4.3% | Fold induction CYP3A (CYP3A; 1.0 μM): 0.8 | Cell death observed (CYP3A; 1.0 μM, rat hepatocytes in the induction assay): ** Cell death observed (approximately 30%). | % of positive control CYP3A (CYP3A; 1.0 μM): 3.0% | induction, % of positive control, CYP3A (CYP3A; 0.1-1.0 μM): < 13% | IC50 (CYP 2C9): 8.56 µM
